Assay results from patent US5834461A, “Tricyclic benzazepine vasopressin antagonists” (American Cyanamid Company, priority 1997, dated 1998).

Assays:
[1] = molecular target: vasopressin V1 receptor (rat liver plasma membranes) (Rattus norvegicus, UniProt P30560); assay: Binding Assay to Rat Hepatic V1 Receptors; details: rat hepatic V1
[2] = molecular target: T1, rat kidney medullary V2 receptors (Rattus norvegicus, UniProt Q00788); assay: Binding Assay to Rat Kidney Medullary V2 Receptors; details: rat kidney medullary V2
T1 construct: Medullary tissues from rat kidneys are dissected out; from tissue; host or cells: rat kidney medulla membranes
Outline: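 Competition binding: [3H]AVP at 0.8 nM, test compounds from 50% DMSO, and membranes from rat kidney medulla, left 120 min on the bench. Filtration then liquid scintillation counting measured bound ligand; 1.0 μM unlabeled ligand set non-specific binding.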

[3] = test system: vasopressin V2; assay: Vasopressin V2 Antagonist Activity in Conscious Hydrated Rats (diuretic effect); type: in vivo, normal Sprague-Dawley rats; details: AVP 0.4 μg/kg i.p.
Method: Conscious hydrated rats are treated with compounds under study from 0.1 to 100 mg/kg orally or vehicle. Two to four rats are used for each compound. One hour later, arginine vasopressin (AVP, antidiuretic hormore, ADH) dissolved in peanut oil is administered at 0.4 μg/kg intraperitoneally. Two rats in each test would not receive arginine vasopressin but only the vehicle (peanut oil) to serve as water-loading control. Twenty minutes later each rat is given 30 mL/kg of deionized water orally by gavage and is placed individually in a metabolic cage equipped with a funnel and a graduated glass cylinder to collect urine for four hours. Urine volume is measured and osmolality analyzed by use of a Fiske One-Ten osmometer (Fiske Assoc., Norwood, Mass., USA). Urinary sodium, potassium, and chloride are analyzed by use of ion-specific electrodes in a Beckman E3 (Electrolyte 3) Analyzer. In the following results, […] and decreased osmolality relative to AVP-control indicates activity.

[4] = test system: vasopressin V1; assay: Vasopressin V1 Antagonist Activity in Conscious Rats (vasopressin vasopressor response); type: in vivo, rat (spontaneously hypertensive rats)
Outline: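 Conscious rats had the ventral caudal tail artery cannulated into the lower abdominal aorta under local procaine anesthesia, plus a caudal vein cannula for intravenous dosing. Pulsatile blood pressure was recorded via a Statham P23Db transducer. Vasopressor responses to vasopressin injections were measured before and after compound dosing, with percent antagonism calculated relative to the pre-drug response taken as 100%.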

Chain of vasopressin V1 receptor (rat liver plasma membranes) (P30560 whole entry): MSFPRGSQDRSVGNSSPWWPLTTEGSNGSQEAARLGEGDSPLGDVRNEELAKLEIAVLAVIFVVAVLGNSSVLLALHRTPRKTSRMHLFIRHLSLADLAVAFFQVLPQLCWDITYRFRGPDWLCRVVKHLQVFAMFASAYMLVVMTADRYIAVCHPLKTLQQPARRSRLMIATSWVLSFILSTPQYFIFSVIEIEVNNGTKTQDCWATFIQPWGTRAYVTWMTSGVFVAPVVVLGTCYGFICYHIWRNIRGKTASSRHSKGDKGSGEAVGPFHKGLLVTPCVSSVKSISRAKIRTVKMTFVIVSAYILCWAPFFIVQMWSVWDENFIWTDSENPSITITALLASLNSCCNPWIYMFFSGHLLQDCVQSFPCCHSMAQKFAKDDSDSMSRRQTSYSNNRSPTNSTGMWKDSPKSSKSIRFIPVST
T1 sequence (Q00788 whole entry): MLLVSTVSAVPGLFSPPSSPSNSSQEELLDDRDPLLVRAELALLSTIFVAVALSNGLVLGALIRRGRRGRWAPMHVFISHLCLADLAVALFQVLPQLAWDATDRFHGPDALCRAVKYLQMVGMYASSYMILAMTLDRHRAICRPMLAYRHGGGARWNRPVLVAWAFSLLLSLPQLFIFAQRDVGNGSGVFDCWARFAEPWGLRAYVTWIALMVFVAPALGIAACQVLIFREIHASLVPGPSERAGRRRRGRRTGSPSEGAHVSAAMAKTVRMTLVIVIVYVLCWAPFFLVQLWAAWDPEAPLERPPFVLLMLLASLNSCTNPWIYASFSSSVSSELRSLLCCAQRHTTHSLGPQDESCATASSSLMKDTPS

O=C(Nc1ccc(C(=O)N2Cc3ccccc3Cc3cc(Cl)ccc32)cc1)c1ccc(Cl)cc1Cl [Example 137, N-[4-[(2-Chloro-6,11-dihydro-5H-dibenz[b,e]azepin-5-yl)carbonyl]phenyl]2,4-dichlorobenzamide]
IC50 [1]: 0.076 µM | IC50 [2]: 0.064 µM | Osmolality ([3]; 30 mg/kg orally): 358 mOsm/kg | Urine Volume ([3]; 30 mg/kg orally): 15.8 ml/4 hrs. | MAX % Inhibition ([4]; 10 mg/kg i.v.): 52% | Time of max % inhibition ([4]; 10 mg/kg i.v.): 30 min

Cc1cccc(C(=O)Nc2ccc(C(=O)N3Cc4ccccc4Cc4cc(Cl)ccc43)cc2)c1C [Example 138, N-[4-[(2-Chloro-6,11-dihydro-5H-dibenz[b,e]azepin-5-yl)carbonyl]phenyl]2,3-dimethylbenzamide]
IC50 [1]: 0.046 µM | IC50 [2]: 0.051 µM | Osmolality ([3]; 30 mg/kg orally): 380 mOsm/kg | Urine Volume ([3]; 30 mg/kg orally): 13.8 ml/4 hrs. | MAX % Inhibition ([4]; 10 mg/kg i.v.): 88% | Time of max % inhibition ([4]; 10 mg/kg i.v.): 60 min

Cc1ccccc1C(=O)N(C)c1ccc(C(=O)N2Cc3ccccc3Cc3ccccc32)cc1 [Example 167, N-[4-[ (6,11-Dihydro-5H-dibenz[b,e]azepin-5-yl)carbonyl]phenyl]-N-methyl-2-methylbenzamide]
IC50 [1]: 0.51 µM | IC50 [2]: 0.43 µM | Osmolality ([3]; 30 mg/kg orally): 1544 mOsm/kg | Urine Volume ([3]; 30 mg/kg orally): 2 ml/4 hrs. | MAX % Inhibition ([4]; 10 mg/kg i.v.): 70% | Time of max % inhibition ([4]; 10 mg/kg i.v.): 180 min

O=C(Nc1ccc(C(=O)N2Cc3ccccc3Cc3ccccc32)cc1)c1c(Cl)cccc1Cl [Example 252, N-[4-[(6,11-Dihydro-5H-dibenz[b,e]azepin-5-yl)-carbonyl]phenyl]-2,6-dichlorobenzamide]
IC50 [1]: 0.26 µM | IC50 [2]: 0.26 µM | Osmolality ([3]; 10 mg/kg orally): 790 mOsm/kg | Urine Volume ([3]; 10 mg/kg orally): 7.5 ml/4 hrs. | MAX % Inhibition ([4]; 30 mg/kg i.v.): 75% | Time of max % inhibition ([4]; 30 mg/kg i.v.): 120 min
